In assay [1] the test system is MCF-7. Description: NCI-60 5 dose screen, Breast Cancer. The settings on record: Homo sapiens, MCF7. In kind it is cell-based.
In assay [2] the test system is CAKI-1. Description: NCI-60 5 dose screen, Renal Cancer. The assay is classed as cell-based. The conditions noted are these: Homo sapiens.
Assay [3] concerns MCF-7 cells. Kind of assay: Cell viability assay (MTT/AlamarBlue), antiproliferative activity. The assay is classed as cell-based, human. The settings on record: read-out: IC50 (MCF-7, 72 h). In short, it runs like this: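 MCF-7 cells seeded, left 24 h at 37 °C, then exposed 72 h to compound (1 nM–200 μM, or 0.001–100 μM) in ethanol or DMSO vehicle (≤1% ethanol, 0.1% DMSO). Viability read by MTT (1 mg/mL final, 3 h) or AlamarBlue (10% v/v, 3–5 h), relative to untreated controls as 100%.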
(In general: Resazurin is reduced to fluorescent resorufin, in cell work by metabolically active cells.)

Assay [4] relates to HT29. Kind of assay: NCI-60 5 dose screen, Colon Cancer. The assay is classed as cell-based. The settings on record: Homo sapiens, HT-29.
For assay [5], the system named is A498. Description: NCI-60 5 dose screen, Renal Cancer. The assay is classed as cell-based. The conditions noted are these: Homo sapiens.
In assay [6] the test system is IGROV1. Kind of assay: NCI-60 5 dose screen, Ovarian Cancer. The settings on record: Homo sapiens, IGROV-1. In kind it is cell-based.
The mark [7] stands for this setting: MCF-7, NCI screen, read-out: GI50 in MCF-7 cells.
Setting [8] is: Homo sapiens, MCF7, 72 h, MCF-7, 72 h.

Each structure is given as a SMILES string. Like-named read-outs stand apart in the source and are kept apart here.

As to `COc1ccc([C@H]2[C@H](Cl)C(=O)N2c2cc(OC)c(OC)c(OC)c2)cc1` (relative stereo) [Compound 10e trans, Trans-3-chloro-1-(3,4,5-trimethoxyphenyl)-4-(4-methoxyphenyl) azetidin-2-one], the GI50 (in general, the concentration giving 50% growth inhibition) in assay [1] (setting [7]) is 34 nM; in assay [1] (MCF-7, read-out: GI50), 34.3 nM; in assay [2] (read-out: GI50), 122 nM; in assay [4] (HT29, read-out: GI50) it was 29.2 nM; in assay [5] (read-out: GI50), 27.1 nM; in assay [6] (IGROV1, read-out: GI50) it was 58 nM. The IC50 – broadly, the point on the concentration scale where inhibition reaches its midpoint – in assay [3] (setting [8]) was determined as 56 ± 7 nM.

For the molecule `COc1ccc(/C=C\c2cc(OC)c(OC)c(OC)c2)cc1O` [CA-4, Combretastatin A-4], the IC50 in assay [3] (setting [8]) was 3.9 nM; in assay [3] (MCF-7, 72 h) it was 4 nM.

As for `COc1ccc(C2C(Cl)C(=O)N2c2cc(OC)c(OC)c(OC)c2)cc1O` (centres unmarked) [Compound 10n, 3-Chloro-4-(3-hydroxy-4-methoxy-phenyl)-1-(3,4,5-trimethoxyphenyl)azetidin-2-one], the IC50 in assay [3] (setting [8]) is 17.5 ± 9 nM; in assay [3] (MCF-7, 72 h) it was 17 ± 9 nM.

In the case of `COc1ccc(C2N(c3cc(OC)c(OC)c(OC)c3)C(=O)C2(Cl)Cl)cc1O` (centres unmarked) [Compound 11n, 3,3-Dichloro-4-(3-hydroxy-4-methoxyphenyl)-1-(3,4,5-trimethoxyphenyl)azetidin-2-one], the GI50 in assay [1] worked out at 31 nM; in assay [2], 126 nM; in assay [4] it was 2780 nM; in assay [5] it was 22.6 nM; in assay [6], 44.5 nM. Further, the IC50 in assay [3] (Homo sapiens, MCF7, 72 h) stood at 31 ± 4 nM.

As for `CCSc1ccc(C2C(Br)C(=O)N2c2cc(OC)c(OC)c(OC)c2)cc1` (centres unmarked) [Compound 16d, 3-Bromo-4-(4-(ethylthio)phenyl)-1-(3,4,5-trimethoxyphenyl)azetidin-2-one], the GI50 in assay [1] (setting [7]) came to 44 nM; in assay [1] (MCF-7, read-out: GI50), 44.7 nM; in assay [4] (HT29, read-out: GI50) it was 351 nM; in assay [5] (read-out: GI50), 103 nM; in assay [6] (IGROV1, read-out: GI50), 63 nM. In addition, the IC50 in assay [3] (setting [8]) was 1100 ± 100 nM.
